The target in one test is T1, human CB1 receptor (Homo sapiens, UniProt P21554).
T1 construct: expressed in transfected cells; host or cells: SK-N-MC cells, stably transfected with pcDNA3 CB-1 (human); semi-purified membrane pellet
The test is described as follows: Binding assay for CB1, radioligand [3H]-CP-55,940 displacement on membranes of transfected SK-N-MC cells. The settings on record: for IC50: human CB1 in SK-N-MC membranes, [3H]-CP-55,940 0.2 nM, calculated by linear regression, read-out: Cannabinoid CB1 Receptor Binding IC50. The method, then: (§1) Binding Assay for CB1 or CB2 Agonists or Inverse Agonists
(§2) The human CB1 and CB2 receptors were stably expressed in SK-N-MC cells transfected with pcDNA3 CB-1 (human) or pcDNA3 CB-2 (human). The cells were grown in T-180 cell culture flasks under standard cell culture conditions at 37° C. in a 5% CO2 atmosphere. The cells were harvested by trysinization and homogenized in a homogenization buffer (10 mM Tris, 0.2 mM MgCl2, 5 mM KCl, with protease inhibitors aprotinin, leupeptin, pepstatin A and bacitracin) and centrifuged (2000 g). The supernatant was then centrifuged in 2M sucrose (31,300 g) to produce a semi-purified membrane pellet. The pellet was resuspended in homogenization and stored at −80° C.
(§3) On the day of the assay, the pellet was thawed on ice and diluted in assay buffer (50 mM Tris-HCl, 5 mM MgCl2, 2.5 mM EDTA, 0.5 mg/mL fatty acid free bovine serum albumin, pH 7.5). The diluted membrane pellet was added with buffer, either a test compound or vehicle standard and a the radioligand [H]^3+-CP-55,940 (0.2 nM) to the wells of a 96-well polypropylene plate. Non-specific binding was measured in wells containing WIN 55,212 (10 uM). The plate was covered and incubated for 90 minutes at 30° C. The contents were then aspirated onto a Packard Unifilter GF/C filter bottom plate prewet with 0.5% polyethyleneimine. The wells of the polypropylene plate were rinsed and aspirated seven times with a 0.9% saline-0.5% Tween 20 solution. The Unifilter plate was dried, a scintillation cocktail was added to each well and the counts representing binding were quantitated in a TopCount scintillation counter.
(§4) For compounds tested, an IC50 binding value was obtained from percent inhibition studies in which various test concentrations were used. The binding value (in μM) was calculated by linear regression.
(§5) For compounds without an IC50 binding value, the percent inhibition (%) was obtained at a test concentration of 0.2 μM.

For the next test, the target named is T2, human CB2 receptor (Homo sapiens, UniProt P34972).
T2 construct: expressed in transfected cells; host or cells: SK-N-MC cells, stably transfected with pcDNA3 CB-2 (human); semi-purified membrane pellet
T2 sequence (P34972 whole entry): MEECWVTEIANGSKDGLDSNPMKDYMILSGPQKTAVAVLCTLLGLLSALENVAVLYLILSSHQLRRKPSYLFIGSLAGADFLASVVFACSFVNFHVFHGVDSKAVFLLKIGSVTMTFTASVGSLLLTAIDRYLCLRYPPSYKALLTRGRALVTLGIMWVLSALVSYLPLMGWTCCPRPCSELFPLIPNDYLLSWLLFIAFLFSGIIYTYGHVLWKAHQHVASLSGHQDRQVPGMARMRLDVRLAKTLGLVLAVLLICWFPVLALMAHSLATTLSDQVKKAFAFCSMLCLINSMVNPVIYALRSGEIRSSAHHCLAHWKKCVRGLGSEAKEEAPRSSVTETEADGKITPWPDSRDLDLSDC
The test is described as follows: Binding assay for CB2, radioligand [3H]-CP-55,940 displacement on membranes of transfected SK-N-MC cells. The settings on record: test concentration of 0.2 μM; human CB2 in SK-N-MC membranes; read-out: Cannabinoid CB2 Receptor Binding Inhibition (%). The procedure: as §1, §2, §3, §4, §5

Molecules are shown by their SMILES.

T1 sequence (P21554 whole entry): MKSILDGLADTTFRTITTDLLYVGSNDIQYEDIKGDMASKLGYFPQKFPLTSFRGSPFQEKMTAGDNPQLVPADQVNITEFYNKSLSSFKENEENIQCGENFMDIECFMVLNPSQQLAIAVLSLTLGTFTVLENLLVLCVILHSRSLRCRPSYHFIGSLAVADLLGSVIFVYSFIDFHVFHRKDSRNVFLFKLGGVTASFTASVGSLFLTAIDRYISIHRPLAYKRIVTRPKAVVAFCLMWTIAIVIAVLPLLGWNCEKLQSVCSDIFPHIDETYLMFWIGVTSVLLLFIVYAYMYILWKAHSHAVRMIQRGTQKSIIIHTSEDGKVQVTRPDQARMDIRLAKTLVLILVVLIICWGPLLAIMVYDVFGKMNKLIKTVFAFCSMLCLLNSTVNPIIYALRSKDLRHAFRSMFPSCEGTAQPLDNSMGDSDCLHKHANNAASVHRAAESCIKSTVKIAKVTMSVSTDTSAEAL

Consider `C[C@@H](NC(=O)c1nn(-c2ccc(Cl)cc2Cl)c2c1CCN(C(=O)OC(C)(C)C)/C2=C/c1ccc(F)cc1)c1ccccc1` [Cpd 1, (7E)-1-(2,4-dichloro-phenyl)-7-(4-fluoro-benzylidene)-3-[(1R)-1-phenyl-ethylcarbamoyl]-1,4,5,7-tetrahydro-pyrazolo[3,4-c]pyridine-6-carboxylic acid tert-butyl ester], for which the 50% inhibitory concentration (IC50) on human CB1 receptor is 0.01 µM. Further, on human CB2 receptor, the inhibition at 0.2 µM was 35%.
Take `CC(NC(=O)c1nn(-c2ccc(Cl)cc2Cl)c2c1CCN(C(=O)OC(C)(C)C)/C2=C/c1ccc(F)cc1)c1ccccn1` (stereo not shown) [Cpd 2, (7E)-1-(2,4-dichloro-phenyl)-7-(4-fluoro-benzylidene)-3-(1-pyridin-2-yl-ethylcarbamoyl)-1,4,5,7-tetrahydro-pyrazolo[3,4-c]pyridine-6-carboxylic acid tert-butyl ester]: on human CB1 receptor, the IC50 was 0.048 µM. Also, the inhibition at 0.2 µM on human CB2 receptor came to 13%.
In the same order, the values of `CC(C)(C)OC(=O)N1CCc2c(C(=O)NN3CCCCC3)nn(-c3ccc(Cl)cc3Cl)c2/C1=C\c1ccc(F)cc1` [Cpd 3, (7E)-1-(2,4-dichloro-phenyl)-7-(4-fluoro-benzylidene)-3-(piperidin-1-ylcarbamoyl)-1,4,5,7-tetrahydro-pyrazolo[3,4-c]pyridine-6-carboxylic acid tert-butyl ester] are 0.012 µM and 13%.
For the compound `CC(C)(C)OC(=O)N1CCc2c(C(=O)N3CCCCC3)nn(-c3ccc(Cl)cc3Cl)c2/C1=C\c1ccc(F)cc1` [Cpd 4, (7E)-1-(2,4-dichloro-phenyl)-7-(4-fluoro-benzylidene)-3-(piperidine-1-carbonyl)-1,4,5,7-tetrahydro-pyrazolo[3,4-c]pyridine-6-carboxylic acid tert-butyl ester], the inhibition at 0.2 µM came to 39% on human CB1 receptor (test concentration of 0.2 μM, for compounds without an IC50 binding value, read-out: Cannabinoid CB1 Receptor Binding percent inhibition) and 18% on human CB2 receptor.
On to `COC(=O)N1CCc2c(C(=O)NC(C)c3ccccn3)nn(-c3ccc(Cl)cc3Cl)c2/C1=C\c1ccc(F)cc1` (stereo not shown) [Cpd 5, (7E)-1-(2,4-dichloro-phenyl)-7-(4-fluoro-benzylidene)-3-(1-pyridin-2-yl-ethylcarbamoyl)-1,4,5,7-tetrahydro-pyrazolo[3,4-c]pyridine-6-carboxylic acid methyl ester], for which the IC50 at human CB1 receptor was 0.033 µM. Further, on human CB2 receptor, the inhibition at 0.2 µM was 17%.

A word on the IC50: it is the point on the concentration scale where inhibition reaches its midpoint. The inhibition is the relative decrease from the control value, in per cent.

(Values after patent US20070254911A1, “Tetrahydro-Pyrazolo[3,4-c]Pyridine Cannabinoid Modulators” (priority 2006, published 2007).)
